PMC4148173 (Journal of Medicinal Chemistry, 2014)

Assays:
human D3R [1] = molecular target: T1, human D3R (Homo sapiens, UniProt P35462); test: [35S]GTPγS binding assay, CHO-hD3 membranes; assay type: biochemical; conditions: for stimulation of [35S]GTPγS binding, D3R: agonist test; for inhibition at 10 µM: read-out: inhibition of D3R basal [35S]GTPγS binding; for inhibition of basal [35S]GTPγS binding at D3R: up to 1 μM concentration
human D2R = human D2R (Homo sapiens, UniProt P14416); test: [35S]GTPγS binding assay, CHO-hD2 membranes; assay type: biochemical; conditions: for stimulation of [35S]GTPγS binding, D2R: agonist test; for inhibition of basal [35S]GTPγS binding at D2R: up to 1 μM concentration
Chain of human D2R (P14416 whole entry): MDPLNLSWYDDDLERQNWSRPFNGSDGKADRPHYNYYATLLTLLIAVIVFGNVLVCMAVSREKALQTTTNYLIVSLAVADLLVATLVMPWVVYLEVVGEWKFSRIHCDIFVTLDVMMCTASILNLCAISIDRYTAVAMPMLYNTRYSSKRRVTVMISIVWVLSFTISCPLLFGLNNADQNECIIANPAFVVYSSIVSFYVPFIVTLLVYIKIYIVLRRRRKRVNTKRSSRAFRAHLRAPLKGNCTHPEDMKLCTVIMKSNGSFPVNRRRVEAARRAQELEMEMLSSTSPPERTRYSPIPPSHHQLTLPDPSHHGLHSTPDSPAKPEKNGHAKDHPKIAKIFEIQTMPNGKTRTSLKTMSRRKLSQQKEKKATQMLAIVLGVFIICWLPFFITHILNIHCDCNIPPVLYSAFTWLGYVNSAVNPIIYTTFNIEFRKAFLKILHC

human D3R [2] = molecular target: T1, human D3R; test: [125I]IABN displacement binding, HEK cell membranes expressing human D3R
human D2LR = human D2LR (Homo sapiens, UniProt P14416); test: [125I]IABN displacement binding, HEK cell membranes expressing human D2LR
Chain of human D2LR (P14416 whole entry): as above

human D3R [3] = molecular target: T1, human D3R; test: β-Arrestin-2 recruitment assay; assay type: cell-based; conditions: for D3R IC50 ± SEM: inhibition of (+)-PD128907-induced arrestin translocation in U2OS cells expressing D3R; for selectivity ratio (D2R IC50)/(D3R IC50): β-arrestin-2 recruitment antagonist selectivity
rats = conditions: cited from earlier work
human D2L receptors = human D2L receptors (Homo sapiens, UniProt P14416); test: β-Arrestin-2 recruitment assay; assay type: cell-based; conditions: standard agonist
Chain of human D2L receptors (P14416 whole entry): as above

T1 sequence (P35462 whole entry): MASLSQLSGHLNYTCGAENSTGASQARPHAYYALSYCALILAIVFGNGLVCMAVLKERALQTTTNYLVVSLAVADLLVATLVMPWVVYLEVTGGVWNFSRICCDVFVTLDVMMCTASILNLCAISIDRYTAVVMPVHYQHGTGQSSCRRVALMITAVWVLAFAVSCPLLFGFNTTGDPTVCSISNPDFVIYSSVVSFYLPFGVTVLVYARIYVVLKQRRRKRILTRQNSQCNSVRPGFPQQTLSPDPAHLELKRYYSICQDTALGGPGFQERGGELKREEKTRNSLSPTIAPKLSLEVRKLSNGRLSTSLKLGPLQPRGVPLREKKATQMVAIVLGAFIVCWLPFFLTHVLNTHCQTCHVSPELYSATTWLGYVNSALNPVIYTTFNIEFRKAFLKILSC

Compound | D3R IC50 ± SEM (human D3R [3]) | stimulation of [35S]GTPγS binding, D3R (human D3R [1]) | inhibition at 10 µM (human D3R [1]) [%] | inhibition of basal [35S]GTPγS binding at D3R (human D3R [1]) | stimulation of [35S]GTPγS binding, D2R (human D2R) | inhibition of basal [35S]GTPγS binding at D2R (human D2R) | Kb (human D3R [1]) [nM] | Kb (human D2R) [nM] | other results
CC(C)(C)c1nc(N2CCN(CCCCNC(=O)[C@H]3CC[C@H](c4ccccc4)CC3)CC2)cc(C(F)(F)F)n1 [Compound 39, trans-N-(4-(4-(2-(tert-Butyl)-6-(trifluoromethyl)pyrimidin-4-yl)piperazin-1-yl)butyl)-4-phenylcyclohexanecarboxamide] |  | did not stimulate | 40 to 60 | less than 30% | did not stimulate | less than 30% |  |  | 
CC(C)(C)c1nc(N2CCN(CCCCNC(=O)c3cc4ccccc4[nH]3)CC2)cc(C(F)(F)F)n1 [Compound 26, N-(4-(4-(2-(tert-Butyl)-6-(trifluoromethyl)pyrimidin-4-yl)piperazin-1-yl)butyl)-1H-indole-2-carboxamide] |  |  |  |  |  |  |  |  | lower binding potency at D3R (human D3R [2]; compared to compound 25): 2.6 fold; lower binding potency at D2R (human D2LR; compared to compound 25): 1.8 fold
CC(C)(C)c1nc(N2CCN(CCCCNC(=O)c3cn4ccncc4n3)CC2)cc(C(F)(F)F)n1 [Compound 30, N-(4-(4-(2-(tert-Butyl)-6-(trifluoromethyl)pyrimidin-4-yl)piperazin-1-yl)butyl)imidazo[1,2-a]pyrazine-2-carboxamide] |  | did not stimulate | 40 to 60 | less than 30% | did not stimulate | less than 30% | 0.33 ± 0.05 | 25 ± 6 | 
CC(C)(C)c1nc(N2CCN(CCCCNC(=O)c3cn4ccccc4n3)CC2)cc(C(F)(F)F)n1 [Compound 25, N-(4-(4-(2-(tert-Butyl)-6-(trifluoromethyl)pyrimidin-4-yl)piperazin-1-yl)butyl)imidazo[1,2-a]pyridine-2-carboxamide] | subnanomolar | did not stimulate | 40 to 60 | less than 30% | did not stimulate | less than 30% | 1.3 ± 0.4 | 111 ± 25 | selectivity ratio (D2R Ki/D3R Ki) (human D3R [2]; Table 1, binding selectivity): > 100; selectivity ratio (D2R IC50)/(D3R IC50) (human D3R [3]): > 400; cocaine self-administration, cocaine reward, cue-induced reinstatement of cocaine-seeking, cocaine-induced place preference (rats; rat models): significantly attenuating; effect on food reward or spontaneous locomotor activity (rats; rats, at doses decreasing cocaine effects): no effect; cocaine reward, cocaine seeking, preference for cocaine-associated environments, and cocaine induced locomotor activity (rats; rats): significant decreases
CCCN1CCO[C@@H]2c3cc(O)ccc3OC[C@H]21 [PD128907, reference compound] |  |  |  |  |  |  |  |  | agonist EC80 dose, D3R (human D3R [3]; β-arrestin recruitment, standard agonist): 8 nM
CCCN1C[C@H](CSC)C[C@@H]2c3cccc4[nH]cc(c34)C[C@H]21 [pergolide] |  |  |  |  |  |  |  |  | agonist EC80 dose, D2R (human D2L receptors): 6 nM

Continued, in another order:

D3R IC50 ± SEM (human D3R [3]) | Compound | stimulation of [35S]GTPγS binding, D3R (human D3R [1]) | inhibition at 10 µM (human D3R [1]) [%] | inhibition of basal [35S]GTPγS binding at D3R (human D3R [1]) | stimulation of [35S]GTPγS binding, D2R (human D2R) | inhibition of basal [35S]GTPγS binding at D2R (human D2R) | Kb (human D3R [1]) [nM] | Kb (human D2R) [nM] | other results
subnanomolar | COc1ccccc1N1CCN(CCCCNC(=O)c2cn3ccccc3n2)CC1 [Compound 7, N-(4-(4-(2-Methoxyphenyl)piperazin-1-yl)butyl)imidazo[1,2-a]pyridine-2-carboxamide] |  |  |  |  |  |  |  | enhancement in affinity at the D3R (human D3R [2]; compared to compound 6): ~3 fold; higher affinity at D2R (human D2LR; compared to compound 6): ~10 fold
subnanomolar | O=C(NCCCCN1CCN(c2cccc(Cl)c2Cl)CC1)c1cn2ccccc2n1 [Compound 8, N-(4-(4-(2,3-Dichlorophenyl)piperazin-1-yl)butyl)imidazo[1,2-a]pyridine-2-carboxamide] | did not stimulate |  | less than 30% | did not stimulate | less than 30% | 0.0038 ± 0.0013 | 1.1 ± 0.2 | selectivity ratio (D2R IC50)/(D3R IC50) (human D3R [3]): > 400
